# Where two headings read alike, the source gives them in different places.
# How the values were obtained:
# [1] = target: WT-SQR (SDHC), IPO323 mitochondria (Zymoseptoria tritici, UniProt F9X9V6+F9XH52+O42772); experiment: Succinate-quinone (SQR) SDHI sensitivity assay on purified mitochondria, IPO323; type: biochemical
# Protocol: (§1) Succinate-ubiquinone oxidoreductase (SQR) inhibition assays were performed on mitochondrial extracts from a panel of strains that were (i) either carrying a unique C-subunit encoding gene (ZtSDHC1, ZtSDHC1_A84I or Zt-SDHC3), or (ii) carrying two C-subunit encoding genes ZtSDHC1 and ZtSDHC3 (Table 1).
# (§2) Biomass production, mitochondrial extraction and purification were performed as described in [14]. Succinate: ubiquinone/DCPIP sensitivity tests were performed as described in [14] with minor modification. The different mitochondrial suspensions were adjusted to similar initial velocity (1 OD595nm hour^-1) and inhibitor concentrations ranged between 0.047nM and 50μM with uniform 4x dilution steps (11 concentrations + DMSO control). Calculated absorbance slopes (OD/min) were used for IC50 calculations using GraphPad Prism 6.07 software non-linear curve fitting against log inhibitor concentrations.
# [2] = target: SQR of 06STD024 (SDHC / altC) mitochondria (Zymoseptoria tritici, UniProt A0A1X7RQW2+F9X9V6+F9XH52+O42772); experiment: Succinate-quinone (SQR) SDHI sensitivity assay on purified mitochondria, 06STD024; type: biochemical; conditions: for IC50: mitochondria of field isolate 06STD024, mean of three ± SD
# Chain of SQR of 06STD024 (SDHC / altC) mitochondria (A0A1X7RQW2 36-181): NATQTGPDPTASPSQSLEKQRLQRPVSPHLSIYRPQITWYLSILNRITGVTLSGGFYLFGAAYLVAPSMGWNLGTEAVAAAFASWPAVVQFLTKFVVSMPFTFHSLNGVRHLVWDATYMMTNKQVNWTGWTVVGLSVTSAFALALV
# Chain of SQR of 06STD024 (SDHC / altC) mitochondria (O42772 19-297): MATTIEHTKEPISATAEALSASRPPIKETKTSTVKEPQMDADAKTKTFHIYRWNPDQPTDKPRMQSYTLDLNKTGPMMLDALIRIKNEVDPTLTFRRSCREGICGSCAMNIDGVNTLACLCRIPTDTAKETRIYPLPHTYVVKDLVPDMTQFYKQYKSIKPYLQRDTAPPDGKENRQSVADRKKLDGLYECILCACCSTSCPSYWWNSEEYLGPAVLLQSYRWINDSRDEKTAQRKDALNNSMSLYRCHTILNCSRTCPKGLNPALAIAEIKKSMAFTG
# Chain of SQR of 06STD024 (SDHC / altC) mitochondria (F9X9V6 1-193): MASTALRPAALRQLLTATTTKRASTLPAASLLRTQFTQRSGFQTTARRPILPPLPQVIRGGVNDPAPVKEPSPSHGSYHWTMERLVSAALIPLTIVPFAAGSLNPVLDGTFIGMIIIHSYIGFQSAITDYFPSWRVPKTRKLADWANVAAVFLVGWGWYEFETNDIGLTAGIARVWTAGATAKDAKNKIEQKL
# Chain of SQR of 06STD024 (SDHC / altC) mitochondria (F9XH52 44-187): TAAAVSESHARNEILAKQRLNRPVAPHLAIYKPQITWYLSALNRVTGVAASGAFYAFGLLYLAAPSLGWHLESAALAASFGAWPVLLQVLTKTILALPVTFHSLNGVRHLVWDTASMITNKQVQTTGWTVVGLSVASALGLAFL
# Chain of SQR of 06STD024 (SDHC / altC) mitochondria (F9WWR1 29-643 partner): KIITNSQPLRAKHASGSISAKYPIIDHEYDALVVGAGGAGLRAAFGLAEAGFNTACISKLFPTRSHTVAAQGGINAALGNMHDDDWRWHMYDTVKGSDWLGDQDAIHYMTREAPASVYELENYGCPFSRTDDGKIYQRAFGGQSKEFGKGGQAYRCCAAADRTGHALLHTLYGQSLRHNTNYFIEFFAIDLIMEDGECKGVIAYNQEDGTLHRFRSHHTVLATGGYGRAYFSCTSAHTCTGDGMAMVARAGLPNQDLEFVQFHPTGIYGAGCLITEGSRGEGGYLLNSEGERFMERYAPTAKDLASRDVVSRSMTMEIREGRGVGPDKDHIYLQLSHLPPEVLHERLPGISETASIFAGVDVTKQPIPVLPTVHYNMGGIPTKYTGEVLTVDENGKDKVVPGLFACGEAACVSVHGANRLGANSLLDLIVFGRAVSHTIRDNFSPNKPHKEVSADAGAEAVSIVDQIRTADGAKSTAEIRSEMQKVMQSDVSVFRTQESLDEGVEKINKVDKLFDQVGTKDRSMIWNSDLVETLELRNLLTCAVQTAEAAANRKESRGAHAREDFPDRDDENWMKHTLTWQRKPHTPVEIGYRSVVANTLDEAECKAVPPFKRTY
# Protocol: as §1
# (§3) Biomass production, mitochondrial extraction and purification were performed as described in [14]. Succinate: ubiquinone/DCPIP sensitivity tests were performed as described in [14] with minor modification.
# [3] = target: SQR (SDHC) of D024 SDHC3 KO mitochondria (Zymoseptoria tritici, UniProt F9X9V6+F9XH52+O42772); experiment: Succinate-quinone (SQR) SDHI sensitivity assay on purified mitochondria, 06STD024 SDHC3 KO; type: biochemical; conditions: for RF (resistance factor), D024 SDHC3 KO (SDHC): IC50 ratio compared to IPO323 values; for IC50: mitochondria of 06STD024 ZtSDHC3 deletion mutant, mean of three ± SD
# Protocol: as §1, §2
# [4] = target: altC-SQR (altC) of D024 SDHC1 KO mitochondria (Zymoseptoria tritici, UniProt A0A1X7RQW2+F9X9V6+O42772); experiment: Succinate-quinone (SQR) SDHI sensitivity assay on purified mitochondria, 06STD024 SDHC1 KO; type: biochemical; conditions: for IC50: mitochondria of 06STD024 ZtSDHC1 deletion mutant (pure altC-SQR), mean of three ± SD
# Chain of altC-SQR (altC) of D024 SDHC1 KO mitochondria (A0A1X7RQW2 36-181): as the sequence (A0A1X7RQW2 36-181) above
# Chain of altC-SQR (altC) of D024 SDHC1 KO mitochondria (O42772 20-297): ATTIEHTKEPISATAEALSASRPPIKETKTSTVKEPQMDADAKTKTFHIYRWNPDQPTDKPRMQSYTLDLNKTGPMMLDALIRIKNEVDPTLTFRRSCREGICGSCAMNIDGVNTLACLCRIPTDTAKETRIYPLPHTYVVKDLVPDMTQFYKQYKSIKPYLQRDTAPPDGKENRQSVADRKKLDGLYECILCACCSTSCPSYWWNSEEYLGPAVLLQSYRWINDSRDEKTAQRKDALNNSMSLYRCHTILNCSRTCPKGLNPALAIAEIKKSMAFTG
# Chain of altC-SQR (altC) of D024 SDHC1 KO mitochondria (F9X9V6 1-193): as the sequence (F9X9V6 1-193) above
# Chain of altC-SQR (altC) of D024 SDHC1 KO mitochondria (F9WWR1 41-643 partner): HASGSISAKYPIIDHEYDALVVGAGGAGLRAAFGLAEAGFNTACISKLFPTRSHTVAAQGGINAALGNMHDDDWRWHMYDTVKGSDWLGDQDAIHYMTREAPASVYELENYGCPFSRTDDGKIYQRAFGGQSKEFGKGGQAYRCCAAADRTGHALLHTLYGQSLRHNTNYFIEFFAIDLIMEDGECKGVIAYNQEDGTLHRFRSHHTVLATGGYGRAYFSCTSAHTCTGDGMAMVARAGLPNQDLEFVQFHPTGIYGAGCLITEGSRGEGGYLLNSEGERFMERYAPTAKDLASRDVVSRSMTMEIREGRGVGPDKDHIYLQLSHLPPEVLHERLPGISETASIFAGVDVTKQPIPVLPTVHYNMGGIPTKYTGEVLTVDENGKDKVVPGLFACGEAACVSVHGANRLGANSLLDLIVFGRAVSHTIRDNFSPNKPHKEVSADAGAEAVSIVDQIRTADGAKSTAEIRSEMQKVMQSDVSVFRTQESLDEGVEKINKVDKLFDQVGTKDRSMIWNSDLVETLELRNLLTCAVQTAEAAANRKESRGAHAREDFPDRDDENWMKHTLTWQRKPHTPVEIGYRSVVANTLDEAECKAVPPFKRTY
# Protocol: as §1, §3
# [5] = test system: SQR (SDHC / altC) of IPO323 pTet::SDHC3 transformant, induced; experiment: Succinate-quinone (SQR) SDHI sensitivity assay on purified mitochondria, IPO323 pTet::SDHC3 induced; type: biochemical, Zymoseptoria tritici; conditions: IPO323 pTet::SDHC3 transformant grown in the absence of doxycycline; mean of three ± SD
# Protocol: as §1, §3
# [6] = target: SQR (SDHC / altC) of IPO323 pTet::SDHC3 transformant, repressed (Zymoseptoria tritici, UniProt A0A1X7RQW2+F9X9V6+F9XH52+O42772); experiment: Succinate-quinone (SQR) SDHI sensitivity assay on purified mitochondria, IPO323 pTet::SDHC3 repressed; type: biochemical; conditions: for IC50: IPO323 pTet::SDHC3 transformant grown in presence of 30 mg.L^-1 doxycycline, mean of three ± SD
# Protocol: as §1, §3
# [7] = test system: Zymoseptoria tritici field and genetically modified strains; experiment: Liquid culture assay for fungicide sensitivity determination; type: cell-based; conditions: Zymoseptoria tritici, liquid culture sensitivity
# Protocol: Sensitivity towards commercial fungicides was determined for a set of 99 SHA-SDHI-naïve Z. tritici field isolates sampled in Europe between 2006 and 2009. The EC50 of these isolates was determined in liquid growth assays and the data obtained compared for each possible pair of SDHI fungicides (cross-resistance (XR) plots, Fig 1). […] Comparative succinate-quinone reductase (SQR) enzyme inhibition tests were performed with mitochondria extracted from a panel of SHA-SDHIs tolerant and sensitive isolates.
# In order to characterize in more depth the mechanisms driving sensitivity differences across the isolates, a subset of eight isolates carrying the ZtSDHC3 gene was analyzed for their sensitivity to SDHIs, alt-SDHC expression and splicing patterns. Liquid culture growth sensitivity tests were performed to determine EC50s for this set of isolates towards a wide range of commercial and research SDHIs (S5 Table).
# Pre-culture of the inoculum and fungicide sensitivity tests were performed following previously described procedures. Different ranges of inhibitor concentrations were used for population monitoring and for the detailed phenotyping of a selected set of individual field isolates and genetically modified strains. For fungicide sensitivity monitoring of European field populations, final inhibitors concentrations were between 100 mg.L^-1 and 0.0001 mg.L^-1 with uniform 10x dilution steps (7 inhibitor concentrations + DMSO control). For refined sensitivity analysis of a smaller panel of isolates final inhibitor concentrations ranged between 0.5 mM and 0.47 nM with uniform 4x dilution factor steps (11 inhibitor concentrations+ DMSO control).
# [8] = IC50 ratio compared to IPO323 values
# [9] = read-out: EC50 (nM) Mean, strain 06STD024
# [10] = read-out: EC50 (nM) Mean, strain 07STGB009
# [11] = read-out: EC50 (nM) Mean, strain 09STD041
# [12] = read-out: EC50 (nM) Mean, strain 09STD053
# [13] = read-out: EC50 (nM) Mean, strain 09STF011
# [14] = read-out: EC50 (nM) Mean, strain 09STF037
# [15] = read-out: EC50 (nM) Mean, strain 09STF112
# [16] = read-out: EC50 (nM) Mean, strain 09STIR20.3
# [17] = read-out: EC50 (nM) Mean, strain Flu21 (SDHC1_A84I)
# [18] = read-out: EC50 (nM) Mean, strain IPO323
# [19] = read-out: EC50 (nM) Mean, strain IPO94269
# [20] = read-out: EC50 (nM) Mean, strain KO_SDHC1_T1
# [21] = read-out: EC50 (nM) Mean, strain KO_SDHC1_T3
# [22] = read-out: EC50 (nM) Mean, strain KO_SDHC3_T4
# [23] = read-out: EC50 (nM) Mean, strain KO_SDHC3_T13
# [24] = read-out: EC50 (nM) Mean, strain pTet::SDHC3_I78A_T1
# [25] = read-out: EC50 (nM) Mean, strain pTet::SDHC3_I78A_T5
# [26] = read-out: EC50 (nM) Mean, strain pTet::SDHC3_I78A_T15
# [27] = read-out: EC50 (nM) Mean, strain pTet::SDHC3_I78A_T35
# [28] = read-out: EC50 (nM) Mean, strain pTet::SDHC3_T1
# [29] = read-out: EC50 (nM) Mean, strain pTet::SDHC3_T2
# [30] = read-out: EC50 (nM) Mean, strain pTet::SDHC3_T3
# [31] = read-out: EC50 (nM) Mean, strain pTet::SDHC3_T7
# Chain of WT-SQR (SDHC), IPO323 mitochondria (F9WWR1 entry or part of it): as the sequence (F9WWR1 29-643 partner) above
# Chain of WT-SQR (SDHC), IPO323 mitochondria (F9X9V6 entry or part of it): as the sequence (F9X9V6 1-193) above
# Chain of WT-SQR (SDHC), IPO323 mitochondria (O42772 19-297): as the sequence (O42772 19-297) above
# Chain of WT-SQR (SDHC), IPO323 mitochondria (F9XH52 entry or part of it): as the sequence (F9XH52 44-187) above
Structure (SMILES),IC50 [1] [µM],IC50 [2] [µM],"RF (resistance factor), D024 SDHC3 KO (SDHC) [3]",IC50 [3] [µM],IC50 [4] [µM],IC50 [5] [µM],IC50 [6] [µM],"EC50 [7, 9] [nM]","EC50 [7, 10] [nM]","EC50 [7, 11] [nM]","EC50 [7, 12] [nM]","EC50 [7, 13] [nM]","EC50 [7, 14] [nM]","EC50 [7, 15] [nM]","EC50 [7, 16] [nM]","EC50 [7, 17] [nM]","EC50 [7, 18] [nM]","EC50 [7, 19] [nM]","EC50 [7, 20] [nM]","EC50 [7, 21] [nM]",further results
CC1=C(C(=O)Nc2ccccc2)SCCO1 [Carboxin],0.969 ± 0.182,0.731 ± 0.0844,0.8,0.775 ± 0.0945,0.865 ± 0.215,0.763 ± 0.164,1.2 ± 0.085,4620,6340,13200,9370,9620,6840,6780,13200,10200,8550,10800,10400,11200,"RF (resistance factor), 06STD024 (SDHC / altC) [2, 8]: 0.8; RF (resistance factor), D024 SDHC1 KO (altC) [4, 8]: 0.9; RF (resistance factor), pTet Repressed (SDHC / altC) [6, 8]: 1.2; EC50 [7, 22]: 20600 nM; EC50 [7, 23]: 19600 nM; EC50 [7, 24]: 7520 nM; EC50 [7, 25]: 12700 nM; EC50 [7, 26]: 8080 nM; EC50 [7, 27]: 15700 nM; EC50 [7, 28]: 6980 nM; EC50 [7, 29]: 7420 nM; EC50 [7, 30]: 6930 nM; EC50 [7, 31]: 8460 nM"
Cn1cc(C(=O)NCCc2ccc(Cl)cc2Cl)c(C(F)F)n1 [Compound 1],0.113 ± 0.0109,0.875 ± 0.159,0.7,0.0794 ± 0.0076,0.94 ± 0.238,0.484 ± 0.0428,0.152 ± 0.0175,14700,15700,6050,6070,7870,4910,8980,4360,49100,3580,2710,125000,78800,"EC50 [7, 22]: 9090 nM; EC50 [7, 23]: 7200 nM; EC50 [7, 24]: 4610 nM; EC50 [7, 25]: 7960 nM; EC50 [7, 26]: 3300 nM; EC50 [7, 27]: 4430 nM; EC50 [7, 28]: 33300 nM; EC50 [7, 29]: 35300 nM; EC50 [7, 30]: 22900 nM; EC50 [7, 31]: 35300 nM"
C[C@@H](Cc1ccc(Cl)cc1Cl)NC(=O)c1cn(C)nc1C(F)F [Compound 2],0.0053 ± 0.0006,0.415 ± 0.068,0.7,0.0037 ± 0.0005,0.358 ± 0.0634,0.204 ± 0.0207,0.0156 ± 0.0039,2320,4000,702,367,606,178,786,259,5450,96.4,161,10400,8310,"EC50 [7, 22]: 299 nM; EC50 [7, 23]: 309 nM; EC50 [7, 24]: 168 nM; EC50 [7, 25]: 332 nM; EC50 [7, 26]: 150 nM; EC50 [7, 27]: 100 nM; EC50 [7, 28]: 6140 nM; EC50 [7, 29]: 5160 nM; EC50 [7, 30]: 5660 nM; EC50 [7, 31]: 7400 nM"
